Data on eight molecules can be found in patent publication US20230150951A1, “2,5- OR 2,6-DISUBSTITUTED HYDROQUINONE DERIVATIVES WITH AT LEAST ONE CARBOXY, SULFO OR AMIDO GROUP USEFUL AS MEDICAMENTS” (OM PHARMA SA, priority 2020, published 2023).

Test [1] deals with IL-12p70. The experiment in a line: Cytokine release after LPS induction on human whole blood: IL-12p70. It counts as cell-based.
Test [2] addresses T1, VEGF-A (Homo sapiens, UniProt P15692).
T1 construct: purchased ProQinase GmbH
T1 sequence (P15692 27-191 isoform P15692-4): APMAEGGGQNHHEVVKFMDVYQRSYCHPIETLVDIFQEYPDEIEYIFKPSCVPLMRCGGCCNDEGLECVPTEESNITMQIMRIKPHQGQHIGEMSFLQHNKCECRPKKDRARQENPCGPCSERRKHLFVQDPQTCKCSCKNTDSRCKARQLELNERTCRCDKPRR
The test is described as follows: VEGF-A induced sprouting of HUVEC, spheroid-based cellular angiogenesis assay. The format is cell-based. Particulars: VEGF-A 25 ng/mL preincubated with compound, 24 h, read-out: VEGF-A1 IC50. An outline of the steps:
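Compound (final 100 down to 1.56×10^−6 M) was mixed with growth factor (final 25 ng/mL) for 30 min at 37°C, then added onto collagen-embedded 400-cell HUVEC spheroids.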

For test [3], the system named is STZ-induced diabetes model. The experiment in a line: STZ-induced diabetic nephropathy, kidney disease and retinopathy model (28 days treatment).
Method: A total of 70 female CD-1 mice aged 5-7 weeks weighing approximately 25-30 g were used for the study. These were purchased from Charles River, UK and had 7 days acclimatization period. Animals were housed in IVC cages (up to 5 per cage) with individual mice identified by tail mark. All animals were allowed free access to a standard certified commercial diet and sanitised water during the study. The holding room was maintained under standard conditions: 18-24° C., 55-70% humidity and a 12 h light/dark cycle.
Mice were starved for 6 hours prior to injection. One week after completion of induction glucose levels were monitored and mice with levels less than 15 mml/L (280 mg/gL) were removed from the study as they had not developed the ideal severity of diabetes. Glucose levels were be monitored weekly and 5 weeks after STZ induction biochemical assessment of renal injury was carried out by measuring urine albumin and creatinine levels and confirming they were within the desired range. After successful completion of this stage animals were assigned to treatment groups.
Treatment continued for 4 weeks (28 days) with weekly measurement of blood glucose and urine albumin/creatinine. The study schedule is detailed below looking at weekly (week 5 to 9) blood glucose levels, urine albumin creatinie ratios, and terminal (week 9) blood chemistry and cytokines, kidney histology and eye-retinal leakage.
Urine Albumin: Creatinine (ALB: CRE): Urine was collected weekly and pooled for each treatment group.
ELISAs: At the end of the treatment period blood was collected and processed to serum. Serum levels of CRP, TGF-β, IL-6 and TNF-α were quantified using commercially available ELISA kits, results are shown in Table 56.
Setting [4] is: Homo sapiens, LPS 10 ng/ml, 18 h, read-out: Whole Blood: IL-12p70 IC50.
The mark [5] stands for this setting: human whole blood, inhibition of LPS induced inflammation, read-out: IC50 IL-12p70.
Where [6] appears, read: day 28 of treatment (week 9), 15 mg/kg IV, Captopril 50 mg/kg PO.
The mark [7] stands for this setting: day 28 of treatment (week 9), serum, 15 mg/kg IV, Captopril 50 mg/kg PO.

Like-named read-outs stand apart in the source and are kept apart here.

For `O=C(O)Cc1cc(O)c(C(=O)Nc2ccccc2-c2nnn[nH]2)cc1O` [IIIa-001aTz], the IC50 in test [1] (setting [4]) stood at 0.48 µM; in test [1] (setting [5]), 0.48 µM; in test [2], 12 µM.

On to `O=C(O)Cc1cc(O)c(C(=O)Nc2c(C(=O)O)cccc2C(=O)O)cc1O` [IIIa-013a, 2-(4-(carboxymethyl)-2,5-dihydroxybenzamido)isophthalic acid], for which the IC50 in test [1] (setting [4]) turned out to be 0.5 µM; in test [1] (setting [5]), 0.5 µM; in test [2], 43 µM.

On to `CC(=O)N(Cc1cc(O)c(C(=O)O)cc1O)Cc1cc(O)c(C(=O)O)cc1O` [IIIc-057a, N,N-Bis(4-carboxy-2,5-dihydroxyphenylmethyl)acetamide], for which the IC50 in test [1] (setting [4]) was determined as 0.73 µM; in test [1] (setting [5]) it was 0.73 µM; in test [2], 38 µM.

As to `O=C(O)c1cc(O)c(CN(Cc2cc(O)c(C(=O)O)cc2O)Cc2cc(O)c(C(=O)O)cc2O)cc1O` [IIIc-061a, Tris(4-carboxy-2,5-dihydroxyphenylmethyl)amine], the IC50 in test [1] (setting [4]) came to 37.2 µM. For the same molecule, the IC50 in test [1] (setting [5]) turned out to be 37.2 µM. The IC50 in test [2] was found to be 21 µM. The “Serum TNF-α” value in test [3] (28 days, p<0.05) is recorded as “significantly lower than vehicle induced controls”. Further, in test [3] (28 days, retinal flat mounts, FITC-dextran), the Retina vasculature coverage entry is given as “significantly decreased”. For the same molecule, in test [3] (28 days, vs induced vehicle controls), the “Kidney collagen levels (Masson's Trichrome)” value was “significantly decreased”. The “Blood glucose levels on day 28” value in test [3] (IV, vs induced vehicle controls) is listed as “reduction in blood glucose levels, however this did not reach statistical significance”. The “Blood urea nitrogen levels” value in test [3] (day 28, vs induced vehicle controls) is “significantly lower than induced vehicle controls”. Moreover, in test [3] (setting [6]), the “Blood BUN” value is given as 22.5 ± 4.1; the “Disease Score (kidney, H&E)” value is reported as 8 ± 1; the “Eye area (retinal flatmount area covered by vasculature)” value is recorded as 9.1 ± 1.1; the “Trichrome staining (Kidney fibrosis)” value is given as 1.54 ± 0.55. In test [3] (setting [7]), the “Blood CRP” value worked out at 5963 ± 849, the “Blood IL-6” value is reported as 117.59 ± 29.21, the “Blood TGF-beta” value came out at 17.35 ± 2.09 and the “Blood TNF-alpha” value was 324.6 ± 43.6. Also, the “Urine ALB:CREA” value in test [3] (treatment day 28) is given as “reduced”.

In the case of `O=C(O)c1ccccc1CNC(=O)c1cc(O)cc(C(=O)O)c1O` [IIa-053a, 3-(2-Carboxyphenylmethylaminocarbonyl)-2,5-dihydroxybenzoic acid], the values for the IC50 in test [1] (setting [4]), in test [1] (setting [5]) and in test [2] were 0.27 µM, 0.27 µM and 37 µM, respectively.

`O=C(O)c1cc(NC(=O)c2cc(O)cc(C(=O)Nc3ccc(O)c(C(=O)O)c3)c2O)ccc1O` [IIc-007a, 5-(3-(3-carboxy-4-hydroxyphenylaminocarbonyl)-2,5-dihydroxybenzamido)-2-hydroxy benzoic acid]: the IC50 in test [1] (setting [4]) and in test [1] (setting [5]) was 3.37 µM each time.

For `O=C(O)c1cc(O)ccc1NC(=O)c1cc(O)cc(C(=O)Nc2ccc(O)cc2C(=O)O)c1O` [IIc-009a, 2-(3-(2-carboxy-4-hydroxyphenylaminocarbonyl)-2,5-dihydroxybenzamido)-5-hydroxyl benzoic acid], the figures for the half-maximal inhibitory concentration (IC50) in test [1] (setting [4]), in test [1] (setting [5]) and in test [2] were over 100 µM, 100 µM and 182 µM, respectively.

Turning to `O=C(O)c1cc(O)cc(CSCc2cc(O)cc(C(=O)O)c2O)c1O` [IVc-058a, 3-((2,5-Dihydroxy-3-carboxyphenyl)methylthiomethyl)-2,5-dihydroxybenzoic acid], the results for the concentration for half-maximal inhibition (IC50) in test [1] (setting [4]), in test [1] (setting [5]) and in test [2] were 4.23 µM, 4.23 µM and 83 µM, respectively.
